Reference: patent US20100055133A1, “PHARMACEUTICAL COMPOSITIONS” (Biovail Laboratories International (Barbados) S.R.L, priority 2008, published 2010)

Test: Tetrabenazine solubility across the pH range 2-12 (Comparative Example 1)
Assay type: physicochemical
Description: The following example employs immediate-release tablets of tetrabenazine, in contrast to the controlled-release tablets of the present invention, to determine the solubility of tetrabenazine across the pH range 2-12.
The dissolution of tetrabenazine 12.5 mg and 25 mg immediate-release tablets was conducted in 0.1 M hydrochloric acid solution (pH 1.5).
The solubility of tetrabenazine was determined across the pH range 2-12 in water, adjusted with hydrochloric acid/sodium hydroxide as necessary and if feasible complete dissolutions at pH 7.0 and pH 12.
All samples were protected from light throughout the experiment.

**Q.** With `COc1cc2c(cc1OC)C1CC(=O)C(CC(C)C)CN1CC2` (stereo not drawn) [tetrabenazine, 1,3,4,6,7,11b-hexahydro-9,10-dimethoxy-3-(2-methylpropyl)-2H-benzo(a)quinolizin-2-one] as the compound, how does the solubility (between pH 4 and pH 12) read?
**A.** The solubility was “approximately 3.0 mg/100 ml”.

**Q.** What about the solubility category (between pH 4 and pH 12) of the same compound?
**A.** The solubility category was “practically insoluble”.

**Q.** What about the solubility category (pH 2) of the same compound?
**A.** The solubility category was “slightly soluble”.

**Q.** And the solubility (pH 3)?
**A.** The solubility was “approximately 4.0 mg/100 ml”.

**Q.** And the solubility category (pH 3)?
**A.** The solubility category was “practically insoluble”.

**Q.** And the solubility category (pH range of 3-12)?
**A.** Its solubility category is “practically insoluble”.
